Reference: ChEMBL document CHEMBL1159183, “Non-peptide itam mimics as ZAP-70 antagonists” (Bioorg Med Chem Lett, 1997)
pIC50: −log10 of the molar value.

Assays:
[1] = target: T1, Tyrosine-protein kinase ZAP-70 (Homo sapiens, UniProt P43403); assay: Antagonistic activity against SH2 domain of Zeta-chain (TCR) associated protein kinase, ZAP-70; assay type: functional
T1 sequence (P43403 whole entry): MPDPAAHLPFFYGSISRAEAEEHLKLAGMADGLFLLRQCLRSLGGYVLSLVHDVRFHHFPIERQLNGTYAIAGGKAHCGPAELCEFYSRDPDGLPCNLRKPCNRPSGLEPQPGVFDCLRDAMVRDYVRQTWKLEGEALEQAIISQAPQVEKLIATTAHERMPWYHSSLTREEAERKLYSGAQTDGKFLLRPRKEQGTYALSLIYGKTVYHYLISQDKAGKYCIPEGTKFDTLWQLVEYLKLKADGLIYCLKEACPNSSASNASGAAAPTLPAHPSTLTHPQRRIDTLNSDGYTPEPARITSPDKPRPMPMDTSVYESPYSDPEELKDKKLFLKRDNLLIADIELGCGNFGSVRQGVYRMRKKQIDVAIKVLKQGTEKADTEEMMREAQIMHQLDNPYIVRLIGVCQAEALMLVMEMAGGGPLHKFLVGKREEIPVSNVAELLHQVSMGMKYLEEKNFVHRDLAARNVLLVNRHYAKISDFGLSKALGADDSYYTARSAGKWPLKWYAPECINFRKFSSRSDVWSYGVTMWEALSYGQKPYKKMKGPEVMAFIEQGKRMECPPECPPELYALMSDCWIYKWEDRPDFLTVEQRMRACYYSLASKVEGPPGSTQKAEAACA

[2] = test system: Jurkat; assay: Cellular activity was measured by an IL-2 luciferase reporter gene assay on a Jurkat human T cell line activated by anti-CD28 and anti-TCR antibodies; assay type: functional, cell-based

| Structure (SMILES) | pIC50 [1] | pIC50 [2] |
| --- | --- | --- |
| CCCCCC(=O)N(Cc1ccc(CP(=O)(O)O)cc1)[C@H]1CC[C@H]2[C@@H]3CCc4cc(OCCC)ccc4[C@H]3CC[C@]12C | 5.49 | 5.44 |
| CCCCCC(=O)N(Cc1ccc(C(F)(F)P(=O)(O)O)cc1)[C@H]1CC[C@H]2[C@@H]3CCc4cc(OCCC)ccc4[C@H]3CC[C@]12C | 5.72 | 6.05 |
| CCCCCC(=O)N(Cc1ccc(CP(=O)(O)O)cc1)[C@H]1CC[C@H]2[C@@H]3CCc4cc(OCCCOc5ccc6c(c5)CC[C@@H]5[C@@H]6CC[C@]6(C)[C@@H](N(Cc7ccc(CP(=O)(O)O)cc7)C(=O)CCCCC)CC[C@@H]56)ccc4[C@H]3CC[C@]12C | 6.49 | 4.58 |
| CCCCCC(=O)N(Cc1ccc(C(F)(F)P(=O)(O)O)cc1)[C@H]1CC[C@H]2[C@@H]3CCc4cc(OCCCOc5ccc6c(c5)CC[C@@H]5[C@@H]6CC[C@]6(C)[C@@H](N(Cc7ccc(C(F)(F)P(=O)(O)O)cc7)C(=O)CCCCC)CC[C@@H]56)ccc4[C@H]3CC[C@]12C | 6.60 | 5.72 |
